Assay results taken from ChEMBL document CHEMBL1201862, “PubChem BioAssay data set” (2004).
Several values for one entry are separate records, joined by “and”; a condition that tells them apart may be missing. Identical values can stand only once. Activity calls are given as the source filed them.

Columns and labels:
[1] = target: T1, Voltage-gated N-type calcium channel alpha-1B subunit/Amyloid beta A4 precursor protein-binding family A member 1 (Homo sapiens, UniProt Q00975+Q02410); type: protein assay
Large T antigen = Large T antigen (Simian virus 40, UniProt P03070); type: functional, Betapolyomavirus macacae;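 note: Confirmatory-stage PubChem screen for compounds that inhibit SV40 T antigen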
[2] = target: T1, Voltage-gated N-type calcium channel alpha-1B subunit/Amyloid beta A4 precursor protein-binding family A member 1; type: protein assay; remark: listed apart in the source
[3] = growth suppression of PTEN-null colon cells, dose response, cell-based, HCT116 PTEN knockout (AID 1047); type: functional;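 note: HCT116 colon tumor cells with PTEN knocked out; cells exposed to compound for 60 hours before readout; potency for loss of cell viability measured by luminescence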
[4] = growth suppression of beta-catenin-knockout colon cells, dose response, cell-based, HCT116, human colon tumor (AID 1045); type: functional;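 note: HCT116 colon tumor cells with beta catenin knocked out; cells exposed to compound for 60 hours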
[5] = target: T2, Short transient receptor potential channel 4 (Mus musculus, UniProt Q9QUQ5); assay: mouse TRPC4 channel inhibitors, dose response, cell-based, HEK293 TRPC4/mu-opioid, Fluo-4 calcium (AID 434942); type: functional;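 note: potency of inhibitors blocking the TRPC4 calcium response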
T2 sequence (Q9QUQ5 whole entry): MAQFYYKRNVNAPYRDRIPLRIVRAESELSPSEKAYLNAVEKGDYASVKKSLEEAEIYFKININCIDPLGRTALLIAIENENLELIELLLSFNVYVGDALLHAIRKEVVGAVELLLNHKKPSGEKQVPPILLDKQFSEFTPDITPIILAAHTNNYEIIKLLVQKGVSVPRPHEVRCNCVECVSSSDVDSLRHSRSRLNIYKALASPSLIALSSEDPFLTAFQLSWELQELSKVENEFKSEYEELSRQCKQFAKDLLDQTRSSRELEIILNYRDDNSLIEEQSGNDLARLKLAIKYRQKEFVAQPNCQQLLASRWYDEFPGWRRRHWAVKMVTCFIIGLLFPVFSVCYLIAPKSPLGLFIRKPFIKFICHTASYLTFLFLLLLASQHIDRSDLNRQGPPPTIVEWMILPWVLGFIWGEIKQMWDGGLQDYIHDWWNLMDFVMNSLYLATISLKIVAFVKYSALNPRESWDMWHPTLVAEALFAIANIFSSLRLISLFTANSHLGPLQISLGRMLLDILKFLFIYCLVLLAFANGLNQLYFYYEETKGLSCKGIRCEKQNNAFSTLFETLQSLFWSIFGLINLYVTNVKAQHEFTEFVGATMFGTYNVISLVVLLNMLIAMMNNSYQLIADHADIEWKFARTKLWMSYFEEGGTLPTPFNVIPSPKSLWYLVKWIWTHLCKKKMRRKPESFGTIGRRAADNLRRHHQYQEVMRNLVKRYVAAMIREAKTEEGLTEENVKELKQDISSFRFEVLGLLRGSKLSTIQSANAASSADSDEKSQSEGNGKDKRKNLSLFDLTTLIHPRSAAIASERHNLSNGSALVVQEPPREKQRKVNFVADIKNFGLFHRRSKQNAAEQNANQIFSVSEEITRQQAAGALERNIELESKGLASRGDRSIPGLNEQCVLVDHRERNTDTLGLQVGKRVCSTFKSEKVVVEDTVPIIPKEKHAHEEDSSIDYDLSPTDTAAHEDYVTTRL

HEK293 [6] = assay: NOD1 signaling inhibitors, primary screen, cell-based, luminescence, uHTS (AID 1578); type: functional; settings: Homo sapiens
HEK293 [7] = assay: cells; type: functional, cell-based; settings: Homo sapiens
HEK293 [8] = assay: cells; type: functional, cell-based; settings: Homo sapiens; remark: listed apart in the source
[9] = cytotoxicity in HPDE-C7 cells, cell-based, fluorescence, HTS (AID 430); type: functional; settings: Homo sapiens
[10] = target: Nucleotide-binding oligomerization domain-containing protein 2 (Homo sapiens, UniProt Q9HC29); assay: NOD2 signaling inhibitors, cell-based, luminescence, uHTS, HEK293 (AID 1566); type: functional
HEK293 [11] = assay: NOD2 signaling inhibitors in MDP-stimulated cells, cell-based, uHTS, luminescence (AID 2001); type: functional; settings: Homo sapiens
HEK293 [12] = assay: cells; type: functional, cell-based; settings: Homo sapiens; remark: listed apart in the source
[13] = cytotoxicity in KRAS-transformed pancreatic duct cells, primary screen, cell-based, fluorescence, HTS (AID 431); type: functional; settings: Homo sapiens;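 note: cell line used: HPDE-C7K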
[14] = target: T3, Heat shock factor protein 1 (Mus musculus, UniProt P38532); assay: HSF1 potentiators in luciferase reporter cells, confirmation, cell-based, NIH3T3, luminescence, dose retest (AID 435004); type: functional;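 note: stress induced by proteasome inhibitor MG132 added 30 min after compound; luciferase reporter driven by HSF1 response element in NIH3T3 cells; actives raise luminescence as potentiators of the MG132 stress response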
T3 sequence (P38532 whole entry): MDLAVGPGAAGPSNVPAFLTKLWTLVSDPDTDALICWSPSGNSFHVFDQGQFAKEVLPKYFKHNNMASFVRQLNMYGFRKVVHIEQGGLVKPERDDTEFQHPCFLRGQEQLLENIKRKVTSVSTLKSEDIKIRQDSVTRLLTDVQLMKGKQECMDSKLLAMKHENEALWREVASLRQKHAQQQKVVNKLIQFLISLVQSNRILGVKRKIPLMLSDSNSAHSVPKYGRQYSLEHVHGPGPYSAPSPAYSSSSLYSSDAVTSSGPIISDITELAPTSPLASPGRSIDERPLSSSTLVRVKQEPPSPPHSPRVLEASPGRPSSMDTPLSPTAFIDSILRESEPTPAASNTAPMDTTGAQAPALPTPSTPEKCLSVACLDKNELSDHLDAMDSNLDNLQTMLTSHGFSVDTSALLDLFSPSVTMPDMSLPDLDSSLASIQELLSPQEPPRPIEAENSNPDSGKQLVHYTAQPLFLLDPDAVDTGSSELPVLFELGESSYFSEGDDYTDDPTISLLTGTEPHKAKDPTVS

[15] = target: T4, Microphthalmia-associated transcription factor (Homo sapiens, UniProt O75030); assay: TRPM1 promoter luciferase signal decrease, dose response, MITF inhibitor project, cell-based, SK-MEL-5, cherry-picked, set 3 (AID 493073); type: functional
T4 sequence (O75030 whole entry): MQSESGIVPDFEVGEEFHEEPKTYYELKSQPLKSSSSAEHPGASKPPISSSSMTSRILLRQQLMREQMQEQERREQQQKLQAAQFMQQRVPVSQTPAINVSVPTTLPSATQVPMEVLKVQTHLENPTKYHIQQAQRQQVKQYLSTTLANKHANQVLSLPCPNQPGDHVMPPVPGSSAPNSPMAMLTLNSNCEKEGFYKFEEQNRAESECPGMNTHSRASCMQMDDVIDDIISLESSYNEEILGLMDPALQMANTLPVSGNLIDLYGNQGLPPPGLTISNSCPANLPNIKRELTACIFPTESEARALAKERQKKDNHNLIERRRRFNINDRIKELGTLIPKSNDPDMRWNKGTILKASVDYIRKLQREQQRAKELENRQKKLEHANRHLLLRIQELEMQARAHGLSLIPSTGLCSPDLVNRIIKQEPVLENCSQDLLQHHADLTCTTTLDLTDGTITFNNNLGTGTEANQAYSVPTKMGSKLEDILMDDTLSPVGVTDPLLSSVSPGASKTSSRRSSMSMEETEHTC

[16] = target: T5, Replicative DNA helicase DnaB (Mycobacterium tuberculosis, UniProt P9WMR3); assay: DnaB intein splicing inhibitors, dose response, biochemical, cell-free fluorescence (AID 449749); type: functional
T5 sequence (P9WMR3 whole entry): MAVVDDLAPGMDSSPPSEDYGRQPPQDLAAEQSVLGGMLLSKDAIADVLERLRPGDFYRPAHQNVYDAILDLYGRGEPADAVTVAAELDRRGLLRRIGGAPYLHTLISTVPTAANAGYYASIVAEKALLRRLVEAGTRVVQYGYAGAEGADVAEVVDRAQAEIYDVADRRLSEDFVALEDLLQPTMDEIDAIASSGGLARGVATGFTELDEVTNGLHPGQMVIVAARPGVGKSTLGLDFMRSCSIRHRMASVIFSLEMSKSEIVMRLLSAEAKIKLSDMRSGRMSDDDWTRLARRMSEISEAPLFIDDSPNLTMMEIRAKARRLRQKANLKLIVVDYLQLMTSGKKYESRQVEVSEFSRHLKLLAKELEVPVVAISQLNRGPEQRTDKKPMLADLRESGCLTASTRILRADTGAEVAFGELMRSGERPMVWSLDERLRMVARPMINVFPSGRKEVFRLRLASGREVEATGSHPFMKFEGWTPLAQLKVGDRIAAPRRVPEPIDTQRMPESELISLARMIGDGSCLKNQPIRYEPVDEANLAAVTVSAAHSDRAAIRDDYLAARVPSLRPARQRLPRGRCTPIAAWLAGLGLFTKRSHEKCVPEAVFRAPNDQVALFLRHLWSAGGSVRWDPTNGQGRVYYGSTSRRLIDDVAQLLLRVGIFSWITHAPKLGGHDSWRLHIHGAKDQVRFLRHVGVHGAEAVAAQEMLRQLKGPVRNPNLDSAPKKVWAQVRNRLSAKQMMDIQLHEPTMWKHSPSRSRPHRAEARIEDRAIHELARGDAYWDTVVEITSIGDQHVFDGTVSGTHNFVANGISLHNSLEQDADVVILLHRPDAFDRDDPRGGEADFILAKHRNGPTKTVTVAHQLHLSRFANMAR

Protein RecA = target: T6, Protein RecA (Mycobacterium tuberculosis, UniProt P9WHJ3); assay: Fluorescence Cell-Free Homogeneous Dose Retest to Identify Inhibitors of RecA-Intein Splicing Activity. [Related pubchem assays (depositor defined):AID2097, AID2223, AID489010, AID492950]; type: functional
T6 sequence (P9WHJ3 whole entry): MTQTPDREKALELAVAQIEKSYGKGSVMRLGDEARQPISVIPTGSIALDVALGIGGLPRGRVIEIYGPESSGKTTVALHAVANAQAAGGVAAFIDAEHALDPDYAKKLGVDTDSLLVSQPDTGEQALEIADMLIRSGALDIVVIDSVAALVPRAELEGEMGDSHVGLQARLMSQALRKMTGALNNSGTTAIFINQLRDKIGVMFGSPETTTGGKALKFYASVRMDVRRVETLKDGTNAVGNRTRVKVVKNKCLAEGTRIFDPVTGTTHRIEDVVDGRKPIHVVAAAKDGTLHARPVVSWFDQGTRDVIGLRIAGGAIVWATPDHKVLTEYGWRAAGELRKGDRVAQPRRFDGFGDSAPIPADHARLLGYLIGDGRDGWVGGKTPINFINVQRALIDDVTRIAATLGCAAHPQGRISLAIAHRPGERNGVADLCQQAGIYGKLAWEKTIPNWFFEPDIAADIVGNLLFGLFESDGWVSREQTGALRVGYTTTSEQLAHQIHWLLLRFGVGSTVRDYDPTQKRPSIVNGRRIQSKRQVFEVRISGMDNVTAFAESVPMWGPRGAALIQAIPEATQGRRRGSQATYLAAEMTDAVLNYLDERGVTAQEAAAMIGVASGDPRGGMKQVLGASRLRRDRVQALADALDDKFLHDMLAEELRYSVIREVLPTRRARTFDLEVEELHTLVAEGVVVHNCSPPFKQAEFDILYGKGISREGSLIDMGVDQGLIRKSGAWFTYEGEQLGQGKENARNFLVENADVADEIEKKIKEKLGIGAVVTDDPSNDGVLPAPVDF

[17] = target: Glyceraldehyde-3-phosphate dehydrogenase (Homo sapiens, UniProt P04406)
[18] = target: Alkaline phosphatase, placental type (Homo sapiens, UniProt P05187); assay: PLAP enzyme inhibitors, confirmation, biochemical, luminescence (AID 1512); type: functional
[19] = target: T7, Alkaline phosphatase, tissue-nonspecific isozyme (Homo sapiens, UniProt P05186); assay: human TNAP enzyme inhibitors, SAR follow-up, biochemical, luminescent, dose response (AID 1056)
T7 sequence (P05186 whole entry): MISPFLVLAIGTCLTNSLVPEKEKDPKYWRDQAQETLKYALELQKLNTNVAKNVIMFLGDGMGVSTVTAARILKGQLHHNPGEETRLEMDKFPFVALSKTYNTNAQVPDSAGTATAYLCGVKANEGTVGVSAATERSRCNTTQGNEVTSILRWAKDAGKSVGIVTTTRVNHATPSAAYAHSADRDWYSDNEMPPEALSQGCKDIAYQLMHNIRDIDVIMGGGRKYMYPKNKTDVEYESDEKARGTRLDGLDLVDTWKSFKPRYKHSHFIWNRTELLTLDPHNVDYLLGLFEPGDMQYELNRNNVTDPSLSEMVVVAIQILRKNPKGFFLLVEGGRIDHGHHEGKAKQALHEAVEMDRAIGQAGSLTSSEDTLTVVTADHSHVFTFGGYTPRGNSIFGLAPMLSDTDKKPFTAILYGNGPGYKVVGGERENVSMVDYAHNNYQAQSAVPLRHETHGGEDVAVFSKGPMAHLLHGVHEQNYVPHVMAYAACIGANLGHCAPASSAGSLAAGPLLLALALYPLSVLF

Sequence of Nucleotide-binding oligomerization domain-containing protein 2 (Q9HC29 whole entry, the tested form may be a part): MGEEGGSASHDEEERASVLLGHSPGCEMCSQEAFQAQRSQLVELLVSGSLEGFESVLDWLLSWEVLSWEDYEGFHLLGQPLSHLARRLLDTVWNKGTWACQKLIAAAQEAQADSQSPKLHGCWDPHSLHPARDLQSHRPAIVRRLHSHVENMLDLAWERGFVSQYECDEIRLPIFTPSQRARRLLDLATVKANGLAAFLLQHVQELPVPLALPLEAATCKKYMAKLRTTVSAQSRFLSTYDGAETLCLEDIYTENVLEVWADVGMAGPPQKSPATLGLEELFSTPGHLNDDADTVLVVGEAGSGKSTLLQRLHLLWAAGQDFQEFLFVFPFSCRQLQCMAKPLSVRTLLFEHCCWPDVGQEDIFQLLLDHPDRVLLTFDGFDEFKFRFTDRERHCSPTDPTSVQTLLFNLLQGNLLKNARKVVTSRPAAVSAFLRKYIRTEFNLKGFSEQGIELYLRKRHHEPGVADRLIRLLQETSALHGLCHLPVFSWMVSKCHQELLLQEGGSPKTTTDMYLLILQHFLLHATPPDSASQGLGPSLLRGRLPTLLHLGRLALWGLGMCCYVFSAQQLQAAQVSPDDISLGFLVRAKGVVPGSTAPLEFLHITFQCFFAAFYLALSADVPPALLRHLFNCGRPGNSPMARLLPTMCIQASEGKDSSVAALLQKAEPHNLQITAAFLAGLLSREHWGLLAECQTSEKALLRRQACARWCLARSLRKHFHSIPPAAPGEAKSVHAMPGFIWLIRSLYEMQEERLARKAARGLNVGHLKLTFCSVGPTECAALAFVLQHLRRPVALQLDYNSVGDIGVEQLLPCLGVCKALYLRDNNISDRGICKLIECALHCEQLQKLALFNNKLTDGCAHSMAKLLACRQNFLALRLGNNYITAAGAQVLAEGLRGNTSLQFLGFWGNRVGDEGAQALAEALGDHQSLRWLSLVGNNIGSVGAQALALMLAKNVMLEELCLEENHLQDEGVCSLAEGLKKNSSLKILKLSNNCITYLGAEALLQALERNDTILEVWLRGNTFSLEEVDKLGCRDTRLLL
T1 sequence (Q00975 whole entry): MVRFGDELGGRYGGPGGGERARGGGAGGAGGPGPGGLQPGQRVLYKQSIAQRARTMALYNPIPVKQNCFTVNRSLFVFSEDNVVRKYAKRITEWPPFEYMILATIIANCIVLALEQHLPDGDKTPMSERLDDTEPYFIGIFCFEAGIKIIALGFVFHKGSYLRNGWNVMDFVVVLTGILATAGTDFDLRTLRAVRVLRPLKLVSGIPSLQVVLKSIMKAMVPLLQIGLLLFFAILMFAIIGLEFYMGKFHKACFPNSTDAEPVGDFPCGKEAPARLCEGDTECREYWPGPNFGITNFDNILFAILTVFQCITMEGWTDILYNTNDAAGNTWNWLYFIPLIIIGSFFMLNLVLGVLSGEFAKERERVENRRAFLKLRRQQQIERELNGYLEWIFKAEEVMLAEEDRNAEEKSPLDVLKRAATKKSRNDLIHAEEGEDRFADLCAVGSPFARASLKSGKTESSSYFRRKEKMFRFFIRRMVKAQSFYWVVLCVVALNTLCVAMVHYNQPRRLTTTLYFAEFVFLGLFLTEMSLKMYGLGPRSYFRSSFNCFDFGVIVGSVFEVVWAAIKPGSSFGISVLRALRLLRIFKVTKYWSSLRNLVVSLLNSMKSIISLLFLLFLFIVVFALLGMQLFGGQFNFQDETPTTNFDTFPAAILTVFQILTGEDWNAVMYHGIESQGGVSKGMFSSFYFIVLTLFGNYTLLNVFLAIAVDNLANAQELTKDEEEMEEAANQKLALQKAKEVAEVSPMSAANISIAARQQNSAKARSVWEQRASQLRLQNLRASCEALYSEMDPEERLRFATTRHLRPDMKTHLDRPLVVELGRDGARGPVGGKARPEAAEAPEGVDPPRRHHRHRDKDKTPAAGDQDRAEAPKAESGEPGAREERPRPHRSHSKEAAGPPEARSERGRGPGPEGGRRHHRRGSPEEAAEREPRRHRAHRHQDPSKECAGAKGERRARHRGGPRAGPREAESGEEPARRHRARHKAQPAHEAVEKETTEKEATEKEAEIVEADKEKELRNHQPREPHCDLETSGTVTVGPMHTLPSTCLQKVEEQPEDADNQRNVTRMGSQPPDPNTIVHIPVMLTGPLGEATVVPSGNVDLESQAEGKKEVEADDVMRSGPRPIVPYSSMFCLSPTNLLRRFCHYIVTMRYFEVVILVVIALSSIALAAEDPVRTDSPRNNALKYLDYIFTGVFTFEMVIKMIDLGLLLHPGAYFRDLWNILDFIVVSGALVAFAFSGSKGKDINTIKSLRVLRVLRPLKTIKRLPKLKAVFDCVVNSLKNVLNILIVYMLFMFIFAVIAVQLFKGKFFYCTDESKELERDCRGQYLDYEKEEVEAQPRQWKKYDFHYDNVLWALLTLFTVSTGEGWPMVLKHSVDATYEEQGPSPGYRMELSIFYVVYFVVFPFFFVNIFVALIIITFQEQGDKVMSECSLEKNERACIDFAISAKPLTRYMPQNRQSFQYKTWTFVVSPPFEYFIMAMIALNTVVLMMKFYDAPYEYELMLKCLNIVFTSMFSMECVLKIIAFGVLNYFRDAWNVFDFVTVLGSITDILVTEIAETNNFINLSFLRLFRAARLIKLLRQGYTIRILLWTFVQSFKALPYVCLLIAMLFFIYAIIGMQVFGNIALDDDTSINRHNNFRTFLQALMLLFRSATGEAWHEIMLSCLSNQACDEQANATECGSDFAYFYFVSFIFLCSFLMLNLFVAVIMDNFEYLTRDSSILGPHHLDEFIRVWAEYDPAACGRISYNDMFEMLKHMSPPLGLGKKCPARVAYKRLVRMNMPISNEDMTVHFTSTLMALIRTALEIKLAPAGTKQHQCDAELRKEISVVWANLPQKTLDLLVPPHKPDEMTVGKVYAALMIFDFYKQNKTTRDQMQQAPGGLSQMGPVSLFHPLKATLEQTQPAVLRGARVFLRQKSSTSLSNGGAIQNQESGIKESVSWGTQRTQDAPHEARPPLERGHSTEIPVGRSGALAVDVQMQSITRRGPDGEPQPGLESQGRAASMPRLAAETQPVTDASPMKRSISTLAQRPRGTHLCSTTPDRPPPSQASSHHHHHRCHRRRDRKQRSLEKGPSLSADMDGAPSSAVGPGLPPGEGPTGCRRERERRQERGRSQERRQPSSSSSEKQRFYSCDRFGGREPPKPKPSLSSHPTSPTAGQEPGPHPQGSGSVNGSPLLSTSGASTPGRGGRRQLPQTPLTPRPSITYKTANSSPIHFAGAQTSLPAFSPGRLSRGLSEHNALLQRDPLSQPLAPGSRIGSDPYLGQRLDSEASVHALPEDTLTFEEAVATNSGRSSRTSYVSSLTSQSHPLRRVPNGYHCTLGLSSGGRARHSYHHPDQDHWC
T1 sequence (Q02410 whole entry): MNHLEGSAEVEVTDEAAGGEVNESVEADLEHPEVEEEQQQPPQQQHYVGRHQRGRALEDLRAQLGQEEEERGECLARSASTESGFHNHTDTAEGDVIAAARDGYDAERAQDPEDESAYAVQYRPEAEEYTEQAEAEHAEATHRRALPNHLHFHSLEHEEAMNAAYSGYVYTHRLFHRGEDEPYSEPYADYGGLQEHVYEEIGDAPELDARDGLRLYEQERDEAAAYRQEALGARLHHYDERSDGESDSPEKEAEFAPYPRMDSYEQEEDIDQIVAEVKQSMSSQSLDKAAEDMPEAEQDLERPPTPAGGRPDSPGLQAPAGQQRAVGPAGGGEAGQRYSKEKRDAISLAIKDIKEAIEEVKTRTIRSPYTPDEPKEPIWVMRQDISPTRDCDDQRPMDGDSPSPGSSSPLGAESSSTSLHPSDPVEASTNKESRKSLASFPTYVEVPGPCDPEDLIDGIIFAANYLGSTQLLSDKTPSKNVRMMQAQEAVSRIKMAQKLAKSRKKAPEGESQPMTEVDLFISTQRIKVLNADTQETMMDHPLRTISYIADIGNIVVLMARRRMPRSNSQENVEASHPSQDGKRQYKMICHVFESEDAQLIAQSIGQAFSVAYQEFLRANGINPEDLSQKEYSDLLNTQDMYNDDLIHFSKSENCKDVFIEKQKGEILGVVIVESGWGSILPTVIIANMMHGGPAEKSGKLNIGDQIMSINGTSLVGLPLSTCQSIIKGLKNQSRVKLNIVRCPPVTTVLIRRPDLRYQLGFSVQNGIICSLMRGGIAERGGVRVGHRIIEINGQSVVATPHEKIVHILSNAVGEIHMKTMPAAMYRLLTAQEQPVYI
Sequence of Alkaline phosphatase, placental type (P05187 whole entry): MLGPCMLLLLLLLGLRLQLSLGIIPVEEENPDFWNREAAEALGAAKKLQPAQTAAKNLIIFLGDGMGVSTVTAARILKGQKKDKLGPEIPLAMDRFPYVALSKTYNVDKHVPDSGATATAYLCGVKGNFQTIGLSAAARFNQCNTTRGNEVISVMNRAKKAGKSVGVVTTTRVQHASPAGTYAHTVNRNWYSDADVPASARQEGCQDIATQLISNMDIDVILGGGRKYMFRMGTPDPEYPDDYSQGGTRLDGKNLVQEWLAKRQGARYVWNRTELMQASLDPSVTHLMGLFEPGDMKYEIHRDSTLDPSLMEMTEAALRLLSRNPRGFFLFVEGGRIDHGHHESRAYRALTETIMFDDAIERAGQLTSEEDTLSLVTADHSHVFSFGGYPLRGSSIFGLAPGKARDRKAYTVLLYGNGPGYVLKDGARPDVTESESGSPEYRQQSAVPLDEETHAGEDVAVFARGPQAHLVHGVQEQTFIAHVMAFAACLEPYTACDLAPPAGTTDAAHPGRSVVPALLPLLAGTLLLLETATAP
Sequence of Glyceraldehyde-3-phosphate dehydrogenase (P04406 whole entry): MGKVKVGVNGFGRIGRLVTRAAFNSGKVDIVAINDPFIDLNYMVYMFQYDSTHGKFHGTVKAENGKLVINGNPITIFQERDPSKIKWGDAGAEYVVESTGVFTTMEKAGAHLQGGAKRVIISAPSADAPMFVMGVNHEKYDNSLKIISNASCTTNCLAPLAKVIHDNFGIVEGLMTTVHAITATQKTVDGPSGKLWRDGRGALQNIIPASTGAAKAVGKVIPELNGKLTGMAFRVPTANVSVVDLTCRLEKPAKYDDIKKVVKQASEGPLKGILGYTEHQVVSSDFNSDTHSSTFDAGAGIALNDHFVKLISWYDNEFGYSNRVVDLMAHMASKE

| SMILES | EC50 (HEK293 [6]) | IC50 (HEK293 [7]) | IC50 (HEK293 [8]) | EC50 [10] | IC50 (HEK293 [11]) | IC50 (HEK293 [12]) | IC50 [18] | IC50 [19] | further results |
| --- | --- | --- | --- | --- | --- | --- | --- | --- | --- |
| Cc1cc(C)c2c(=O)n(CC(=O)NCCCN3CCN(c4ccccc4F)CC3)sc2n1 |  |  |  |  |  |  |  |  | IC50 [1]: 12.4 µM (active); IC50 (Large T antigen): 14.3 µM (active); IC50 [2]: 48.8 µM (active); EC50 [3]: 18 µM (active); EC50 [4]: 17 µM (active); EC50 [5]: 0.0013 µM (active) |
| Cc1cc(NC(=O)CCS(=O)(=O)c2nc(-c3ccccc3)cc(C(F)(F)F)n2)no1 | > 20 µM (inactive) | 6.11 µM (active) | > 20 µM (inactive) | > 20 µM (inactive) | 8.24 µM (inactive) | > 20 µM (inactive) |  |  | EC50 [9]: 9.01 µM (active); EC50 [13]: > 20 µM (not active) |
| Cc1ccc(C2=NN(C(=O)CCl)C(c3cccs3)C2)o1 (centres undefined) | 8.03 µM (active) | 2.11 µM (active) | > 20 µM (inactive) | 8.81 µM (active) | 4.05 µM (active) | > 20 µM (inactive) |  |  | EC50 [14]: 35.7 µM (inconclusive); AC50 [15]: 6.1 µM (active); AC50 [16]: 1.52 µM (active); EC50 (Protein RecA): 1.51 µM (active) |
| CCS(=O)(=O)c1nc(NC(C)=O)n[nH]1 |  |  |  |  |  |  | > 100 µM (inactive) | 94.8 µM (active) and > 100 µM (inactive) | IC50 [17]: > 100 µM (not active) |
| O=C(CSc1nnc(-c2ccncc2)n1-c1ccc(Cl)cc1)c1ccc(O)c(O)c1 |  |  |  |  |  |  | 6.63 µM (active) | 38.7 µM (active) |  |
